Measurements: ChEMBL document CHEMBL5096216, “Rational Design, Synthesis, and Biological Evaluation of Novel S1PR2 Antagonists for Reversing 5-FU-Resistance in Colorectal Cancer” (J Med Chem, 2022)
The source made the active and inactive calls. The calls are words filed in the database; no cut-off is given here.

Experiments:
HCT-116 = test: Reversal of 5-FU resistance in human HCT-116 cells overexpressing DPD assessed as reduction in cell viability incubated for 48 hrs in presence of 5-FU by MTT assay; assay type: functional, cell-based; settings: HCT-116, 48 h
SW620/5-FU [1] = test: Induction of apoptosis in human SW620/5-FU cells assessed as late apoptotic cells at 10 uM incubated for 24 hrs by Annexin-V/PI staining based flow cytometry assay (reference value: 2.97%); assay type: functional
HT-29 [2] = test: cells; settings: Homo sapiens, HT-29, 48 h
Description: Reversal of 5-FU resistance in human HT-29 cells assessed as reduction in 5-Fluorouracil IC50 at 5 uM incubated for 48 hrs (Rvb = 2768.36 +/- 89.25 %)

HT-29 [3] = test: Antiproliferative activity against human HT-29 cells assessed as reduction in cell viability incubated for 48 hrs by MTT assay; assay type: functional, cell-based; settings: HT-29, 48 h
SW620/5-FU [4] = test: Downregulation of JMJD3 expression in human SW620/5-FU cells incubated for 12 hrs by Western blot analysis; assay type: functional, cell-based; settings: dose 2.5-20 µM, DDE = dose-dependent effect
HT-29 [5] = test: cells; settings: Homo sapiens, HT-29, 48 h; remark: listed apart in the source
Description: Reversal of 5-FU resistance in human HT-29 cells assessed as reduction in 5-Fluorouracil IC50 at 2 uM incubated for 48 hrs (Rvb = 2768.36 +/- 89.25 %)

SW620/5-FU [6] = test: cells; settings: Homo sapiens, 48 h
[7] = Metabolic stability in rat plasma assessed as half life at 1 mg/ml incubated for 48 hrs by HPLC analysis; assay type: ADME, cell-free
[8] = Toxicity in nude mouse xenografted with human SW620/5-FU cells assessed as morphological changes in heart at 1 to 10 mg/kg/day, iv by hematoxylin-eosin staining based analysis; assay type: organism-based; settings: in vivo, dose 1-10 mg/kg/day
[9] = Toxicity in nude mouse xenografted with human SW620/5-FU cells assessed as morphological changes in liver at 1 to 10 mg/kg/day, iv by hematoxylin-eosin staining based analysis; assay type: organism-based; settings: in vivo, dose 1-10 mg/kg/day
[10] = biological target: T1, Sphingosine 1-phosphate receptor 4 (Homo sapiens, UniProt O95977); test: Binding affinity to S1PR4 (unknown origin) assessed as dissociation constant by surface plasmon resonance analysis
T1 sequence (O95977 whole entry): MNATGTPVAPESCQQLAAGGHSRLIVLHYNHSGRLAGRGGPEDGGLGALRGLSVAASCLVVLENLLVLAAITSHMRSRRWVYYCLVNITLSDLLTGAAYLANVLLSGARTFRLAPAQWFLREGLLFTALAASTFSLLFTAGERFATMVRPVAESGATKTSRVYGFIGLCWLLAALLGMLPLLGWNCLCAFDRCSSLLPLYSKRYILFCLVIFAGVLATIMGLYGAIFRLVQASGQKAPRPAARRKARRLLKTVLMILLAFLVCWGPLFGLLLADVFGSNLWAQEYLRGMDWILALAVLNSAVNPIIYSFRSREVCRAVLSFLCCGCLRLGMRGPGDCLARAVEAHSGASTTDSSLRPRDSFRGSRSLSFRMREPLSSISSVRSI

SW620/5-FU [11] = test: Downregulation of H3K27me3 expression in human SW620/5-FU cells at 10 uM incubated for 72 hrs by Western blot analysis; assay type: functional, cell-based
SW620/5-FU [12] = test: Antitumor activity against human SW620/5-FU cells xenografted in nude mouse assessed as tumor volume at 10 mg/kg/day, iv measured on day 15 in presence of 5-FU (reference value: 1991 +/- 469 mm3); assay type: functional; settings: time 15 day
[13] = Metabolic stability in rat plasma assessed as compound remaining at 1 mg/ml measured after 48 hrs by HPLC analysis; assay type: ADME, cell-free; settings: read-out: Stability
SW620/5-FU [14] = test: Antitumor activity against human SW620/5-FU cells xenografted in nude mouse assessed as tumor volume at 5 mg/kg/day, iv measured on day 1 in presence of 5-FU (reference value: 105 +/- 14 mm3); assay type: functional; settings: time 1 day
SW620/5-FU [15] = test: Downregulation of DPD expression in human SW620/5-FU cells incubated for 12 hrs by Western blot analysis; assay type: functional, cell-based; settings: dose 2.5-20 µM, DDE = dose-dependent effect
SW620/5-FU [16] = test: Induction of apoptosis in human SW620/5-FU cells assessed as necrotic cells at 10 uM incubated for 24 hrs in presence of 5-FU by Annexin-V/PI staining based flow cytometry assay (reference value: 0%); assay type: functional
SW620/5-FU [17] = test: Antitumor activity against human SW620/5-FU cells xenografted in nude mouse assessed as tumor growth inhibition at 10 mg/kg/day, iv in presence of 5-FU; assay type: functional; settings: read-out: TGI
[18] = biological target: Sphingosine 1-phosphate receptor 5 (Homo sapiens, UniProt Q9H228); test: Binding affinity to S1PR5 (unknown origin) assessed as dissociation constant by surface plasmon resonance analysis
[19] = biological target: Sphingosine 1-phosphate receptor 3 (Homo sapiens, UniProt Q99500); test: Binding affinity to S1PR3 (unknown origin) assessed as dissociation constant by surface plasmon resonance analysis
SW620/5-FU [20] = test: Antitumor activity against human SW620/5-FU cells xenografted in nude mouse assessed as tumor growth inhibition at 1 mg/kg/day, iv in presence of 5-FU; assay type: functional; settings: read-out: TGI
SW620/5-FU [21] = test: Induction of apoptosis in human SW620/5-FU cells assessed as viable cells at 20 uM incubated for 24 hrs by Annexin-V/PI staining based flow cytometry assay (reference value: 94.3%); assay type: functional; settings: read-out: Activity
[22] = Toxicity in nude mouse xenografted with human SW620/5-FU cells assessed as morphological changes in spleen at 1 to 10 mg/kg/day, iv by hematoxylin-eosin staining based analysis; assay type: organism-based; settings: in vivo, dose 1-10 mg/kg/day
[23] = biological target: Sphingosine 1-phosphate receptor 2 (Homo sapiens, UniProt O95136); test: Binding affinity to S1PR2 (unknown origin) assessed as dissociation constant by surface plasmon resonance analysis
HT-29 [24] = test: Reversal of 5-FU resistance in human HT-29 cells assessed as fold reduction in 5-Fluorouracil IC50 at 5 uM incubated for 48 hrs; assay type: functional
SW620/5-FU [25] = test: Reversal of 5-FU resistance in human SW620/5-FU cells assessed as fold reduction in 5-Fluorouracil IC50 at 5 uM incubated for 48 hrs; assay type: functional
SW620/5-FU [26] = test: Induction of apoptosis in human SW620/5-FU cells assessed as early apoptotic cells at 10 uM incubated for 24 hrs by Annexin-V/PI staining based flow cytometry assay (reference value: 2.73%); assay type: functional
[27] = Metabolic stability in human plasma assessed as half life at 1 mg/ml incubated for 48 hrs by HPLC analysis; assay type: ADME, cell-free
SW620/5-FU [28] = test: Antitumor activity against human SW620/5-FU cells xenografted in nude mouse assessed as tumor volume at 1 mg/kg/day, iv measured on day 15 in presence of 5-FU (reference value: 1991 +/- 469 mm3); assay type: functional; settings: time 15 day
HT-29 [29] = test: Downregulation of JMJD3 expression in 5-FU resistant human HT-29 cells incubated for 12 hrs by Western blot analysis; assay type: functional, cell-based; settings: dose 2.5-20 µM, DDE = dose-dependent effect
HT-29 [30] = test: Reversal of 5-FU resistance in human HT-29 cells assessed as reduction in cell viability incubated for 48 hrs in presence of 5-FU by MTT assay; assay type: functional, cell-based; settings: HT-29, 48 h
SW620/5-FU [31] = test: Induction of apoptosis in human SW620/5-FU cells assessed as early apoptotic cells at 10 uM incubated for 24 hrs in presence of 5-FU by Annexin-V/PI staining based flow cytometry assay (reference value: 2.73%); assay type: functional
HT-29 [32] = test: Downregulation of DPD expression in 5-FU resistant human HT-29 cells incubated for 12 hrs by Western blot analysis; assay type: functional, cell-based; settings: dose 2.5-20 µM, DDE = dose-dependent effect

Sphingosine 1-phosphate receptor 3, sequence (Q99500 whole entry): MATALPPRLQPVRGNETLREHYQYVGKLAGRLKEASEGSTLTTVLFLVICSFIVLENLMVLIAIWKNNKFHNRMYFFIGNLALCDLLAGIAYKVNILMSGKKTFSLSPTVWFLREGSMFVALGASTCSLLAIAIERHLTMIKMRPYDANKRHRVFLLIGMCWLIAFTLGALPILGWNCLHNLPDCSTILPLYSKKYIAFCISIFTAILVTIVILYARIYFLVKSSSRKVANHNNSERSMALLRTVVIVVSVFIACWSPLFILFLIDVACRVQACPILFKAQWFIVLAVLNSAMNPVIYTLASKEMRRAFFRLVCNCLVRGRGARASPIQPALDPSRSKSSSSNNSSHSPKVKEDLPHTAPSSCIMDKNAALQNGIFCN
Sphingosine 1-phosphate receptor 5, sequence (Q9H228 whole entry): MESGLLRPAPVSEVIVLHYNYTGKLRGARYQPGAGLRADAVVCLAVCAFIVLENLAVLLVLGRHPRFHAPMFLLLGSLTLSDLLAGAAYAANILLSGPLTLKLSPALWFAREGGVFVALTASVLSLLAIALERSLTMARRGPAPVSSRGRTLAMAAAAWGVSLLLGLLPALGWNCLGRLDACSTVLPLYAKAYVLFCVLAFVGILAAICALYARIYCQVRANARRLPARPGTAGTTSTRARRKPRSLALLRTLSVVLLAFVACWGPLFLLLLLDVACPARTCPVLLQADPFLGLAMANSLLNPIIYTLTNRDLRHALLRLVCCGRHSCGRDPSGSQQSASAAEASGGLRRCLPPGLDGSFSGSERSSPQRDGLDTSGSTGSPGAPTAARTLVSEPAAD
Sphingosine 1-phosphate receptor 2, sequence (O95136 whole entry): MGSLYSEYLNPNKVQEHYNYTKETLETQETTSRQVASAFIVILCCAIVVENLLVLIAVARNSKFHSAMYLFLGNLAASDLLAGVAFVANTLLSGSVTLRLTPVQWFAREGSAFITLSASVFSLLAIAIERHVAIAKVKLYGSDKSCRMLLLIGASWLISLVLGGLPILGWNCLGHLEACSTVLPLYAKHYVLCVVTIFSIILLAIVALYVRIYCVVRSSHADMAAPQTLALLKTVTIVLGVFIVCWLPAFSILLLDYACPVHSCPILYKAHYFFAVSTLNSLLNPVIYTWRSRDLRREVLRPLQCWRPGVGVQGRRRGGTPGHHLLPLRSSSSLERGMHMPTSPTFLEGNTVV

- IC50 (HCT-116): 6.42 µM
- IC50 (HT-29 [2]): 21.8 µM
- IC50 (HT-29 [3]): > 100 µM
- IC50 (HT-29 [5]): 42.1 µM
- IC50 (SW620/5-FU [6]): 17.6 µM
- half-life at 1 mg/ml [7]: > 48 h
- Kd [10]: > 0.1 µM
- remaining at 48 h, 1 mg/ml [13]: 93%
- Kd [18]: > 0.1 µM
- Kd [19]: > 0.1 µM
- Kd [23]: 0.00073 µM
- half-life at 1 mg/ml [27]: > 48 h
- IC50 (HT-29 [30]): 2.51 µM
SMILES: CCC(CC)CN1CCN(C(=O)Nc2cc(Oc3ccc(F)cc3)cc(Oc3ccc(C(=O)NC)cc3)c2)CC1
- Activity (SW620/5-FU [1]): 2.76%
- Activity (SW620/5-FU [4]): Dde
- Activity [8]: Non-Toxic
- Activity [9]: Non-Toxic
- Activity (SW620/5-FU [11]): Active
- Activity (SW620/5-FU [12]): 521 mm3
- Activity (SW620/5-FU [14]): 103 mm3
- Activity (SW620/5-FU [15]): Dde
- Activity (SW620/5-FU [16]): 0.17%
- inhibition in vivo at 10 mg/kg/day (SW620/5-FU [17]): 73.8%
- inhibition in vivo at 1 mg/kg/day (SW620/5-FU [20]): 49.5%
- viability at 20 µM (SW620/5-FU [21]): 92.1%
- Activity [22]: Non-Toxic
- fold change (FC) (HT-29 [24]): 127
- fold change (FC) (SW620/5-FU [25]): 88
- Activity (SW620/5-FU [26]): 3.41%
- Activity (SW620/5-FU [28]): 1006 mm3
- Activity (HT-29 [29]): Dde
- Activity (SW620/5-FU [31]): 4.41%
- Activity (HT-29 [32]): Dde
